Results: patent publication US20250008950A1, “BIOCIDE COMPOSITIONS” (BASF SE, priority 2021, published 2025)

Test: Solubility of biocide in solvent system (A1+A2)
Format: physicochemical
Description: General method of preparing emulsifiable composition (C): Component (A1) and component (A2) were mixed and heated to a temperature in the range of 20° C. to 100° C. to obtain a solution. Respective amount of the biocide was charged to the above solution at a temperature in the range of 20° C. to 100° C. to obtain the solution containing biocide. Emulsifier and other optional ingredients were charged o to the above biocide containing solution to obtain the emulsifiable composition (C).

Q: Which “Solubility wt. % in total (C)” value (solvent system Acetophenone (A1) / 2-Methoxy-4-Methylphenol (A2), molar ratio A1:A2 1:1) does the source give for `CO/C=C(/C(=O)OC)c1ccccc1Oc1cc(Oc2ccccc2C#N)ncn1` [Azoxystrobin] here?
A: Its value is 27 wt. %.

Q: And the “Solubility wt. % in total (C)” value (solvent system Acetophenone (A1) / 2-sec-Butylphenol (A2), molar ratio A1:A2 1:1)?
A: Its value is 32 wt. %.

Q: What about the “Solubility wt. % in total (C)” value (solvent system Acetophenone (A1) / Phenyl acetic acid (A2), molar ratio A1:A2 2:1) of the same compound?
A: Its value is 25 wt. %.

Q: What about the “Solubility wt. % in total (C)” value (solvent system Acetophenone (A1) / Thymol (A2), molar ratio A1:A2 1:1) of the same compound?
A: Its value is 28 wt. %.
